{"source": "PubChem BioAssay (NCI)", "assay_in_all_cases": "DTP human tumour cell line panel, 48 h", "key": {"[1]": {"test_system": "MDA-MB-435"}, "[2]": {"test_system": "SK-MEL-5 melanoma"}, "[3]": {"test_system": "786-0 renal"}, "[4]": {"test_system": "U251 CNS"}, "[5]": {"test_system": "A549 NSCLC"}, "[6]": {"test_system": "NCI/ADR-RES ovarian"}, "[7]": {"test_system": "A498 renal"}, "[8]": {"test_system": "ACHN renal"}, "[9]": {"test_system": "MDA-MB-231 breast"}, "[10]": {"test_system": "RXF 393 renal"}, "[11]": {"test_system": "BT-549 breast"}, "[12]": {"test_system": "SF-539 CNS"}, "[13]": {"test_system": "KM12 colon"}, "[14]": {"test_system": "PC-3 prostate"}, "[15]": {"test_system": "UO-31 renal"}, "[16]": {"test_system": "SF-295 CNS"}, "[17]": {"test_system": "OVCAR-5 ovarian"}, "[18]": {"test_system": "NCI-H460 lung"}, "[19]": {"test_system": "NCI-H522 lung"}, "[20]": {"test_system": "HT29 colon"}, "[21]": {"test_system": "COLO 205 colon"}, "[22]": {"test_system": "SK-MEL-2 melanoma"}, "[23]": {"test_system": "OVCAR-4 ovarian"}, "[24]": {"test_system": "SNB-19 CNS"}, "[25]": {"test_system": "SW-620 colon"}, "[26]": {"test_system": "SK-MEL-28 melanoma"}, "[27]": {"test_system": "MALME-3M melanoma"}, "[28]": {"test_system": "TK-10 renal"}}, "note": "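In this assay, cells in 96-well plates receive the compound at five concentrations for 48 hours. Endpoints are linearly interpolated between the surrounding concentrations. At the GI50, growth is halved. The concentration for full growth arrest is given as TGI.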", "data": [{"smiles": "N#Cc1c(-c2ccc(Cl)cc2)csc1NC(=O)Nc1ccc(Cl)c(C(F)(F)F)c1", "values": [{"measurement": "GI50", "setting": "[1]", "value": 1490, "unit": "nM"}, {"measurement": "TGI", "setting": "[1]", "value": "> 50", "unit": "µM"}, {"measurement": "GI50", "setting": "[2]", "value": 639, "unit": "nM"}, {"measurement": "TGI", "setting": "[2]", "value": 3.7, "unit": "µM"}, {"measurement": "GI50", "setting": "[3]", "value": 3.18, "unit": "µM"}, {"measurement": "TGI", "setting": "[3]", "value": 13.4, "unit": "µM"}, {"measurement": "GI50", "setting": "[4]", "value": 607, "unit": "nM"}, {"measurement": "TGI", "setting": "[4]", "value": 1910, "unit": "nM"}, {"measurement": "GI50", "setting": "[5]", "value": 630, "unit": "nM"}, {"measurement": "TGI", "setting": "[5]", "value": 12.4, "unit": "µM"}, {"measurement": "GI50", "setting": "[6]", "value": 536, "unit": "nM"}, {"measurement": "TGI", "setting": "[6]", "value": 13.4, "unit": "µM"}, {"measurement": "GI50", "setting": "[7]", "value": 536, "unit": "nM"}, {"measurement": "TGI", "setting": "[7]", "value": 5.68, "unit": "µM"}, {"measurement": "GI50", "setting": "[8]", "value": 234, "unit": "nM"}, {"measurement": "TGI", "setting": "[8]", "value": 5.18, "unit": "µM"}, {"measurement": "GI50", "setting": "[9]", "value": 995, "unit": "nM"}, {"measurement": "TGI", "setting": "[9]", "value": 6.24, "unit": "µM"}, {"measurement": "GI50", "setting": "[10]", "value": 2050, "unit": "nM"}, {"measurement": "TGI", "setting": "[10]", "value": 17.4, "unit": "µM"}, {"measurement": "GI50", "setting": "[11]", "value": 1210, "unit": "nM"}, {"measurement": "TGI", "setting": "[11]", "value": 4.54, "unit": "µM"}, {"measurement": "GI50", "setting": "[12]", "value": 1500, "unit": "nM"}, {"measurement": "TGI", "setting": "[12]", "value": 6.96, "unit": "µM"}, {"measurement": "GI50", "setting": "[13]", "value": 251, "unit": "nM"}, {"measurement": "TGI", "setting": "[13]", "value": 6.96, "unit": "µM"}, {"measurement": "GI50", "setting": "[14]", "value": 161, "unit": "nM"}, {"measurement": "TGI", "setting": "[14]", "value": 2040, "unit": "nM"}, {"measurement": "GI50", "setting": "[15]", "value": 1470, "unit": "nM"}, {"measurement": "TGI", "setting": "[15]", "value": "> 50", "unit": "µM"}, {"measurement": "GI50", "setting": "[16]", "value": 326, "unit": "nM"}, {"measurement": "TGI", "setting": "[16]", "value": 1870, "unit": "nM"}, {"measurement": "GI50", "setting": "[17]", "value": 4.77, "unit": "µM"}, {"measurement": "TGI", "setting": "[17]", "value": "> 50", "unit": "µM"}, {"measurement": "GI50", "setting": "[18]", "value": 209, "unit": "nM"}, {"measurement": "TGI", "setting": "[18]", "value": 1200, "unit": "nM"}, {"measurement": "GI50", "setting": "[19]", "value": 121, "unit": "nM"}, {"measurement": "TGI", "setting": "[19]", "value": 550, "unit": "nM"}, {"measurement": "GI50", "setting": "[20]", "value": 560, "unit": "nM"}, {"measurement": "TGI", "setting": "[20]", "value": 3.54, "unit": "µM"}, {"measurement": "GI50", "setting": "[21]", "value": 895, "unit": "nM"}, {"measurement": "TGI", "setting": "[21]", "value": 2580, "unit": "nM"}, {"measurement": "GI50", "setting": "[22]", "value": 872, "unit": "nM"}, {"measurement": "TGI", "setting": "[22]", "value": 7.35, "unit": "µM"}, {"measurement": "GI50", "setting": "[23]", "value": 691, "unit": "nM"}, {"measurement": "TGI", "setting": "[23]", "value": 3.46, "unit": "µM"}, {"measurement": "GI50", "setting": "[24]", "value": 1270, "unit": "nM"}, {"measurement": "TGI", "setting": "[24]", "value": 35.2, "unit": "µM"}, {"measurement": "GI50", "setting": "[25]", "value": 255, "unit": "nM"}, {"measurement": "TGI", "setting": "[25]", "value": 2950, "unit": "nM"}, {"measurement": "GI50", "setting": "[26]", "value": 1850, "unit": "nM"}, {"measurement": "TGI", "setting": "[26]", "value": 40.1, "unit": "µM"}, {"measurement": "GI50", "setting": "[27]", "value": 1010, "unit": "nM"}, {"measurement": "TGI", "setting": "[27]", "value": 3.94, "unit": "µM"}, {"measurement": "GI50", "setting": "[28]", "value": 757, "unit": "nM"}, {"measurement": "TGI", "setting": "[28]", "value": 11.1, "unit": "µM"}]}]}
